Source: paper PMC3433420 (PLoS ONE, 2012)
Where two headings read alike, the source gives them in different places. One block for each substance: values may come before it. Non-standard residues stand in square brackets, D forms with d. No end group written: not given here. pY = N[C@@H](Cc1ccc(OP(=O)(O)O)cc1)C(=O)O

Columns and labels:
SH2 and PTB domains [1] = experiment: Sum of relative binding free energies (ΔΔG) from FP KDs, relative to 20 µM threshold; design: species or system human; unit not given here
Procedure: In order to further define and classify commonalities and differences among the ErbB family, the relative binding free energy (FE) of each SH2 domain was summed across all phosphosites on each receptor relative to the assay detection threshold of 20 µM according to Equation (3): [drawing 10] (3)

SH2 and PTB domains [2] = conditions: cited from earlier work
Description: Supplement pone.0044471.s022.xlsx, sheet "Most recent PM interactions" | column: Kd || Supplement pone.0044471.s022.xlsx, sheet "All original PM interactions" | column: Kd

[3] = protein ABL2, ref Kaushansky et al. Chem and Biol 2008
[4] = protein ABL2, ref Jones et al. 2006 / Kaushansky et al. Mol Biosys 2008 / Kaushansky et al. Chem and Biol 2008

- GO_SumDDG (SH2 and PTB domains [1]; GO group Adaptors): 1.375
- GO_SumDDG (SH2 and PTB domains [1]; GO group Chromatin Remodeling): 0
- GO_SumDDG (SH2 and PTB domains [1]; GO group Cytoskeletal Regulation): 3.549
- GO_SumDDG (SH2 and PTB domains [1]; GO group Kinases): 3.776
- GO_SumDDG (SH2 and PTB domains [1]; GO group Phosphatases): 2.349
- GO_SumDDG (SH2 and PTB domains [1]; GO group Phosphatidyl Inositol Kinases): 12.5484
- GO_SumDDG (SH2 and PTB domains [1]; GO group Phosphatidyl Inositol Phosphatases): 1.508
- GO_SumDDG (SH2 and PTB domains [1]; GO group Phospholipases): 8.299
- GO_SumDDG (SH2 and PTB domains [1]; GO group RAS GEFs): 3.469
- GO_SumDDG (SH2 and PTB domains [1]; GO group RAS GTPases): 10.8637
- GO_SumDDG (SH2 and PTB domains [1]; GO group RHO GEFs): 4.394
- GO_SumDDG (SH2 and PTB domains [1]; GO group Scaffolds): 3.618
- GO_SumDDG (SH2 and PTB domains [1]; GO group Signal Regulation): 2.5932
Substance: ERBB3 (SEQG[pY]EEMRAFQD)

Substance: PPPApYTPMSGNQd [ErbB4 pY1056, N-terminally rhodamine-labeled 13-mer phosphopeptide]
- Kd (SH2 and PTB domains [2]; [3]): 0.66 µM
- Kd (SH2 and PTB domains [2]; protein PIK3R1-N, ref Kaushansky et al. Chem and Biol 2008): 0.54 µM
- Kd (SH2 and PTB domains [2]; protein PIK3R1-NC, ref Kaushansky et al. Chem and Biol 2008): 1.44 µM
- Kd (SH2 and PTB domains [2]; protein PIK3R2-N, ref Kaushansky et al. Chem and Biol 2008): 0.2 µM
- Kd (SH2 and PTB domains [2]; protein PIK3R2-NC, ref Kaushansky et al. Chem and Biol 2008): 0.46 µM
- Kd (SH2 and PTB domains [2]; protein PIK3R3-N, ref Kaushansky et al. Chem and Biol 2008): 0.89 µM
- Kd (SH2 and PTB domains [2]; protein PIK3R3-NC, ref Kaushansky et al. Chem and Biol 2008): 0.58 µM

Substance: PSSGpYMPMNQGNd [ErbB3 pY1054, N-terminally rhodamine-labeled 13-mer phosphopeptide]
- Kd (SH2 and PTB domains [2]; Protein ABL2, original PM interactions, ref Jones et al. 2006 / Kaushansky et al. Chem and Biol 2008): 0.17 µM
- Kd (SH2 and PTB domains [2]; Protein ITK, original PM interactions, ref Jones et al. 2006 / Kaushansky et al. Chem and Biol 2008): 1.67 µM
- Kd (SH2 and PTB domains [2]; Protein PIK3R1-C, original PM interactions, ref Jones et al. 2006 / Kaushansky et al. Chem and Biol 2008): 1 µM
- Kd (SH2 and PTB domains [2]; Protein PIK3R1-N, original PM interactions, ref Jones et al. 2006 / Kaushansky et al. Chem and Biol 2008): 0.57 µM
- Kd (SH2 and PTB domains [2]; Protein PIK3R1-NC, original PM interactions, ref Jones et al. 2006 / Kaushansky et al. Chem and Biol 2008): 0.11 µM
- Kd (SH2 and PTB domains [2]; Protein PIK3R2-N, original PM interactions, ref Jones et al. 2006 / Kaushansky et al. Chem and Biol 2008): 1 µM
- Kd (SH2 and PTB domains [2]; Protein PIK3R2-NC, original PM interactions, ref Jones et al. 2006 / Kaushansky et al. Chem and Biol 2008): 0.09 µM
- Kd (SH2 and PTB domains [2]; Protein PIK3R3-C, original PM interactions, ref Jones et al. 2006 / Kaushansky et al. Chem and Biol 2008): 0.11 µM
- Kd (SH2 and PTB domains [2]; Protein PIK3R3-N, original PM interactions, ref Jones et al. 2006 / Kaushansky et al. Chem and Biol 2008): 1 µM
- Kd (SH2 and PTB domains [2]; Protein PIK3R3-NC, original PM interactions, ref Jones et al. 2006 / Kaushansky et al. Chem and Biol 2008): 0.05 µM
- Kd (SH2 and PTB domains [2]; Protein SHB, original PM interactions, ref Jones et al. 2006 / Kaushansky et al. Chem and Biol 2008): 1.37 µM
- Kd (SH2 and PTB domains [2]; Protein SHC1-PTB, original PM interactions, ref Jones et al. 2006 / Kaushansky et al. Chem and Biol 2008): 2 µM
- Kd (SH2 and PTB domains [2]; Protein SHF, original PM interactions, ref Jones et al. 2006 / Kaushansky et al. Chem and Biol 2008): 1.23 µM
- Kd (SH2 and PTB domains [2]; Protein SYK-C, original PM interactions, ref Jones et al. 2006 / Kaushansky et al. Chem and Biol 2008): 1.18 µM

Substance: QHPDpYLQEYSTKd [ErbB4 pY1258, N-terminally rhodamine-labeled 13-mer phosphopeptide]
- Kd (SH2 and PTB domains [2]; protein ABL2, all original PM interactions, ref Jones et al. 2006 / Kaushansky et al. Chem and Biol 2008): 0.88 µM
- Kd (SH2 and PTB domains [2]; protein PIK3R3-NC, all original PM interactions, ref Jones et al. 2006 / Kaushansky et al. Chem and Biol 2008): 2 µM
- Kd (SH2 and PTB domains [2]; protein PLCG1-C, all original PM interactions, ref Jones et al. 2006 / Kaushansky et al. Chem and Biol 2008): 2 µM
- Kd (SH2 and PTB domains [2]; protein PLCG1-NC, all original PM interactions, ref Jones et al. 2006 / Kaushansky et al. Chem and Biol 2008): 2 µM
- Kd (SH2 and PTB domains [2]; protein RASA1-N, all original PM interactions, ref Jones et al. 2006 / Kaushansky et al. Chem and Biol 2008): 2 µM
- Kd (SH2 and PTB domains [2]; protein SHC1-PTB, all original PM interactions, ref Jones et al. 2006 / Kaushansky et al. Chem and Biol 2008): 2 µM
- Kd (SH2 and PTB domains [2]; protein SLA, all original PM interactions, ref Jones et al. 2006 / Kaushansky et al. Chem and Biol 2008): 2 µM
- Kd (SH2 and PTB domains [2]; protein SYK-NC, all original PM interactions, ref Jones et al. 2006 / Kaushansky et al. Chem and Biol 2008): 2 µM
- Kd (SH2 and PTB domains [2]; protein VAV2, all original PM interactions, ref Jones et al. 2006 / Kaushansky et al. Chem and Biol 2008): 2 µM
- Kd (SH2 and PTB domains [2]; protein VAV2, ref Jones et al. 2006 / Kaushansky et al. Chem and Biol 2008): 0.77 µM

Substance: QNPVpYHNQPLNPd [ErbB1 pY1110, N-terminally rhodamine-labeled 13-mer phosphopeptide]
- Kd (SH2 and PTB domains [2]; protein ABL1, ref Jones et al. 2006 / Kaushansky et al. Mol Biosys 2008 / Kaushansky et al. Chem and Biol 2008): 0.52 µM
- Kd (SH2 and PTB domains [2]; [4]): 0.06 µM
- Kd (SH2 and PTB domains [2]; protein GRB2, ref Jones et al. 2006 / Kaushansky et al. Mol Biosys 2008 / Kaushansky et al. Chem and Biol 2008): 2 µM
- Kd (SH2 and PTB domains [2]; protein NCK2, ref Jones et al. 2006 / Kaushansky et al. Mol Biosys 2008 / Kaushansky et al. Chem and Biol 2008): 2 µM
- Kd (SH2 and PTB domains [2]; protein SHC1-PTB, ref Jones et al. 2006 / Kaushansky et al. Mol Biosys 2008 / Kaushansky et al. Chem and Biol 2008): 0.32 µM

Substance: QSLLSPSSGpYMPMNQGN [ErbB3 1054]
- Kd (SH2 and PTB domains [2]; Protein ABL2, most recent PM interactions, ref Jones et al. 2006 / Kaushansky et al. Chem and Biol 2008): 0.33 µM
- Kd (SH2 and PTB domains [2]; Protein ITK, most recent PM interactions, ref Jones et al. 2006 / Kaushansky et al. Chem and Biol 2008): 1.67 µM
- Kd (SH2 and PTB domains [2]; Protein PIK3R1-C, most recent PM interactions, ref Jones et al. 2006 / Kaushansky et al. Chem and Biol 2008): 1 µM
- Kd (SH2 and PTB domains [2]; Protein PIK3R1-N, most recent PM interactions, ref Jones et al. 2006 / Kaushansky et al. Chem and Biol 2008): 0.57 µM
- Kd (SH2 and PTB domains [2]; Protein PIK3R1-NC, most recent PM interactions, ref Jones et al. 2006 / Kaushansky et al. Chem and Biol 2008): 0.92 µM
- Kd (SH2 and PTB domains [2]; Protein PIK3R2-N, most recent PM interactions, ref Jones et al. 2006 / Kaushansky et al. Chem and Biol 2008): 0.89 µM
- Kd (SH2 and PTB domains [2]; Protein PIK3R2-NC, most recent PM interactions, ref Jones et al. 2006 / Kaushansky et al. Chem and Biol 2008): 0.09 µM
- Kd (SH2 and PTB domains [2]; Protein PIK3R3-C, most recent PM interactions, ref Jones et al. 2006 / Kaushansky et al. Chem and Biol 2008): 0.11 µM
- Kd (SH2 and PTB domains [2]; Protein PIK3R3-N, most recent PM interactions, ref Jones et al. 2006 / Kaushansky et al. Chem and Biol 2008): 1.32 µM
- Kd (SH2 and PTB domains [2]; Protein PIK3R3-NC, most recent PM interactions, ref Jones et al. 2006 / Kaushansky et al. Chem and Biol 2008): 0.49 µM
- Kd (SH2 and PTB domains [2]; Protein SHB, most recent PM interactions, ref Jones et al. 2006 / Kaushansky et al. Chem and Biol 2008): 1.37 µM
- Kd (SH2 and PTB domains [2]; Protein SHF, most recent PM interactions, ref Jones et al. 2006 / Kaushansky et al. Chem and Biol 2008): 1.23 µM
- Kd (SH2 and PTB domains [2]; Protein SYK-C, most recent PM interactions, ref Jones et al. 2006 / Kaushansky et al. Chem and Biol 2008): 1.18 µM

Substance: RDPHpYQDPHSTAd [ErbB1 pY1125, N-terminally rhodamine-labeled 13-mer phosphopeptide]
- Kd (SH2 and PTB domains [2]; [4]): 0.13 µM
- Kd (SH2 and PTB domains [2]; protein BMX, ref Jones et al. 2006 / Kaushansky et al. Mol Biosys 2008 / Kaushansky et al. Chem and Biol 2008): 1.07 µM
- Kd (SH2 and PTB domains [2]; protein CRK, ref Jones et al. 2006 / Kaushansky et al. Mol Biosys 2008 / Kaushansky et al. Chem and Biol 2008): 1.23 µM
- Kd (SH2 and PTB domains [2]; protein CRKL, ref Jones et al. 2006 / Kaushansky et al. Mol Biosys 2008 / Kaushansky et al. Chem and Biol 2008): 2 µM
- Kd (SH2 and PTB domains [2]; protein RASA1-N, ref Jones et al. 2006 / Kaushansky et al. Mol Biosys 2008 / Kaushansky et al. Chem and Biol 2008): 1.32 µM
- Kd (SH2 and PTB domains [2]; protein SHB, ref Jones et al. 2006 / Kaushansky et al. Mol Biosys 2008 / Kaushansky et al. Chem and Biol 2008): 0.99 µM
- Kd (SH2 and PTB domains [2]; protein SYK-NC, ref Jones et al. 2006 / Kaushansky et al. Mol Biosys 2008 / Kaushansky et al. Chem and Biol 2008): 0.98 µM
- Kd (SH2 and PTB domains [2]; protein TNS1, ref Jones et al. 2006 / Kaushansky et al. Mol Biosys 2008 / Kaushansky et al. Chem and Biol 2008): 1.28 µM
- Kd (SH2 and PTB domains [2]; protein YES1, ref Jones et al. 2006 / Kaushansky et al. Mol Biosys 2008 / Kaushansky et al. Chem and Biol 2008): 0.38 µM

Substance: STQRpYSADPTVFd [ErbB4 pY1128, N-terminally rhodamine-labeled 13-mer phosphopeptide]
- Kd (SH2 and PTB domains [2]; protein SRC, ref Kaushansky et al. Chem and Biol 2008): 0.5 µM

Substance: THDPSPLQRpYSEDPTVPd [ErbB2 1112]
- Kd (SH2 and PTB domains [2]; Protein BLK, most recent PM interactions, ref Kaushansky et al. Chem and Biol 2008): 0.76 µM
- Kd (SH2 and PTB domains [2]; Protein PLCG2-NC, most recent PM interactions, ref Kaushansky et al. Chem and Biol 2008): 1.06 µM

Substance: VSVPpYRAPTSTI [ErbB4 pY1081, N-terminally rhodamine-labeled 13-mer phosphopeptide]
- Kd (SH2 and PTB domains [2]; [3]): 1.23 µM
- Kd (SH2 and PTB domains [2]; protein CRKL, ref Kaushansky et al. Chem and Biol 2008): 1.24 µM
